Measured values reported in patent publication US4585741A, “Method of assay for vitamin D metabolites” (priority 1983, dated 1986).

Columns and labels:
[1] = system: monoclonal antibody B2B4, raised in mice against bovine serum albumin-derivatized calcitroic acid; settings: for concentration displacing half of the reversibly bound 3H-1,25-(OH)2 D3: monoclonal antibody b2b4, 18 h
Experimental: (§1) Monoclonal antibodies binding calcitroic acid were detected in culture supernatants by a radioimmunoassay in which supernatants were exposed to microtiter plates coated with a calcitroic acid-egg albumin conjugate.
Radioligand was added after 1 hr pre-incubation in displacement assays; otherwise it was added immediately. […] Alternatively, 20 λ of a partially purified preparation of carrier mouse IgG was added to the assay mixture. Then 40 λ of purified preparation of rabbit antimouse IgG was added and the mixture incubated for 4 hours at 4° C. […] After centrifugation at 1000×g for 20 minutes, the supernatants were aspirated, the pellets suspended in Budget Solve (Research Products International, Mount Prospect, Ill.) and their radioactivity determined in a Beckman 7000 Scintillation Counter (Beckman Instruments Company, Palo Alto, Calif.).
For sucrose density gradient analysis, 350 λ of assay mixture or supernatant after immunoprecipitation was layered on a linear 5-20% sucrose gradient and centrifuged at 100,000×g for 17 hours. Molecular markers, human gamma globulin (16 mg/ml assay buffer) (Calbiochem-Behring, La Jolla, Calif.) and BSA (12 mg/ml assay buffer) were centrifuged identically. Fractions were collected through a bottom puncture apparatus and their radioactivity assayed.

[2] = system: monoclonal antibody B3A1, raised in mice against bovine serum albumin-derivatized calcitroic acid
Experimental: Bound tracer is separated from free by second antibody precipitation.
as §1
Radioligand was added after 1 hr pre-incubation in displacement assays; otherwise it was added immediately. After incubation for 18 hours, 10λ of rabbit anti-mouse Fab' (unrestricted gift of Dr. Judith Kapp-Pierce, Department of Pathology, Jewish Hospital of St. Louis and Washington University School of Medicine) was added with carrier mouse IgG and tubes were incubated for another 45 minutes at 4°. Alternatively, 20 λ of a partially purified preparation of carrier mouse IgG was added to the assay mixture. Then 40 λ of purified preparation of rabbit antimouse IgG was added and the mixture incubated for 4 hours at 4° C. […] After centrifugation at 1000×g for 20 minutes, the supernatants were aspirated, the pellets suspended in Budget Solve (Research Products International, Mount Prospect, Ill.) and their radioactivity determined in a Beckman 7000 Scintillation Counter (Beckman Instruments Company, Palo Alto, Calif.).

| concentration displacing half of the reversibly bound 3H-1,25-(OH)2 D3 [1] [ng/mL] | KD of calcitriol less than the KD of this analog by [2] | recognition by the antibody ([2]; at concentrations as great as 100 ng/ml) | Structure (SMILES) | displacement of radioligand from B2B4 (sucrose gradient) ([1]; 1 ng/ml of 1,25-(OH)2 D3 added prior to centrifugation, data not shown) |
| --- | --- | --- | --- | --- |
|  |  |  | C=C1/C(=C\C=C2/CCC[C@]3(C)[C@@H]([C@H](C)CCCC(C)(C)O)CC[C@@H]23)C[C@@H](O)C[C@@H]1O [1,25-(OH)2 D3, 1,25-dihydroxycholecalciferol] | almost completely displaced |
| 0.048 | about 41/2 | does not recognize | C=C1CC[C@H](O)C/C1=C/C=C1\CCC[C@]2(C)[C@@H]([C@H](C)CCC(O)C(C)(C)O)CC[C@@H]12 (stereo partly drawn) [24,25-(OH)2 D3, 24,25-dihydroxycholecalciferol] |  |
| 0.068 | more than 6 orders of magnitude |  | C=C1CC[C@H](O)C/C1=C/C=C1\CCC[C@]2(C)[C@@H]([C@H](C)CCCC(C)(C)O)CC[C@@H]12 [25-OHD3, 25-hydroxycholecalciferol] |  |
